What was measured:
Assay type in all cases: in vivo
Conditions in all cases: 250 g/ha unless otherwise stated, evaluated after 13 days, five-point scale
[1] = system: Ipomoea hederacea (IPOHE); experiment: Test 1 glasshouse herbicide test, post-emergence application (Table B1)
Description: (§1) Seeds of a variety of test species are sown in standard soil in pots (Lolium perenne (LOLPE), Solanum nigrum (SOLNI), Amaranthus retoflexus (AMARE), Setaria faberi (SETFA), Echinochloa crus-galli (ECHCG) and Ipomoea hederacea (IPOHE)). After cultivation for one day (pre-emergence) or after 8 days cultivation (post-emergence) under controlled conditions in a glasshouse (at 24/16° C., day/night; 14 hours light; 65% humidity), the plants are sprayed with an aqueous spray solution derived from the formulation of the technical active ingredient in acetone/water (50:50) solution containing 0.5% Tween 20 (polyoxyethelyene sorbitan monolaurate, CAS RN 9005-64-5). Compounds are applied at 250 g/ha unless otherwise stated. The test plants are then grown in a glasshouse under controlled conditions in a glasshouse (at 24/16° C., day/night; 14 hours light; 65% humidity) and watered twice daily. After 13 days for pre and post-emergence, the test is evaluated for the percentage damage caused to the plant. The biological activities (% phytotoxicity) are shown in Tables B1 and B2 below using a five-point scale (5=81 to 100%; 4=61 to 80%; 3=41 to 60%; 2=21 to 40%; 1=0 to 20%).

[2] = system: Amaranthus retoflexus (AMARE); experiment: as above
Description: as §1

[3] = system: Setaria faberi (SETFA); experiment: as above
Description: as §1

[4] = system: Echinochloa crus-galli (ECHCG); experiment: as above
Description: as §1

[5] = system: Ipomoea hederacea (IPOHE); experiment: Test 1 glasshouse herbicide test, pre-emergence application (Table B2)
Description: as §1

[6] = system: Amaranthus retoflexus (AMARE); experiment: as above
Description: as §1

[7] = system: Setaria faberi (SETFA); experiment: as above
Description: as §1

[8] = system: Echinochloa crus-galli (ECHCG); experiment: as above
Description: as §1

SMILES | % phytotoxicity IPOHE, post-emergence application [1] | % phytotoxicity AMARE, post-emergence application [2] | % phytotoxicity SETFA, post-emergence application [3] | % phytotoxicity ECHCG, post-emergence application [4] | % phytotoxicity IPOHE, pre-emergence application [5] | % phytotoxicity AMARE, pre-emergence application [6] | % phytotoxicity SETFA, pre-emergence application [7] | % phytotoxicity ECHCG, pre-emergence application [8]
CCC(C)Sc1ccccc1Oc1ncc(Cl)cn1 (racemic) [Compound A65] | 3 (3=41 to 60%) | 1 (1=0 to 20%) | 3 (3=41 to 60%) | 4 (4=61 to 80%) | 1 (1=0 to 20%) | 3 (3=41 to 60%) | 4 (4=61 to 80%) | 4 (4=61 to 80%)
CCCC(C)CSc1ccccc1Oc1ncc(Cl)cn1 (racemic) [Compound A69] | 1 (1=0 to 20%) | 4 (4=61 to 80%) | 2 (2=21 to 40%) | 4 (4=61 to 80%) | 1 (1=0 to 20%) | 1 (1=0 to 20%) | 4 (4=61 to 80%) | 3 (3=41 to 60%)
CCCC(C)CS(=O)(=O)c1ccccc1Oc1ncc(Cl)cn1 (racemic) [Compound A74] | 1 (1=0 to 20%) | 3 (3=41 to 60%) | 1 (1=0 to 20%) | 1 (1=0 to 20%) | 1 (1=0 to 20%) | 1 (1=0 to 20%) | 1 (1=0 to 20%) | 1 (1=0 to 20%)
CCCCS(=O)(=O)c1ccccc1Oc1ncc(Cl)cn1 [Compound A20] | 1 (1=0 to 20%) | 2 (2=21 to 40%) | 3 (3=41 to 60%) | 2 (2=21 to 40%) | 1 (1=0 to 20%) | 3 (3=41 to 60%) | 4 (4=61 to 80%) | 4 (4=61 to 80%)
CCCCSc1ccccc1Oc1ncc(Cl)cn1 [Compound A21] | 3 (3=41 to 60%) | 4 (4=61 to 80%) | 4 (4=61 to 80%) | 4 (4=61 to 80%) | 2 (2=21 to 40%) | 4 (4=61 to 80%) | 5 (5=81 to 100%) | 5 (5=81 to 100%)
CCCC[S+]([O-])c1ccccc1Oc1ncc(Cl)cn1 (stereo not drawn) [Compound A22] | 2 (2=21 to 40%) | 3 (3=41 to 60%) | 4 (4=61 to 80%) | 4 (4=61 to 80%) | 5 (5=81 to 100%) | 4 (4=61 to 80%) | 5 (5=81 to 100%) | 5 (5=81 to 100%)
CCCC(C)Sc1ccccc1Oc1ncc(Cl)cn1 (stereo not drawn) [Compound A33] | 1 (1=0 to 20%) | 3 (3=41 to 60%) | 2 (2=21 to 40%) | 2 (2=21 to 40%) | 1 (1=0 to 20%) | 1 (1=0 to 20%) | 3 (3=41 to 60%) | 1 (1=0 to 20%)
N#Cc1ccc(CSc2ccccc2Oc2ncc(Cl)cn2)cc1 [Compound A36] | 3 (3=41 to 60%) | 5 (5=81 to 100%) | 4 (4=61 to 80%) | 3 (3=41 to 60%) | 2 (2=21 to 40%) | 5 (5=81 to 100%) | 5 (5=81 to 100%) | 4 (4=61 to 80%)
Cl/C=C/CSc1ccccc1Oc1ncc(Cl)cn1 [Compound A37] | 2 (2=21 to 40%) | 4 (4=61 to 80%) | 2 (2=21 to 40%) | 2 (2=21 to 40%) | 1 (1=0 to 20%) | 4 (4=61 to 80%) | 3 (3=41 to 60%) | 4 (4=61 to 80%)
O=S(=O)(C/C=C/Cl)c1ccccc1Oc1ncc(Cl)cn1 [Compound A38] | 3 (3=41 to 60%) | 2 (2=21 to 40%) | 1 (1=0 to 20%) | 1 (1=0 to 20%) | 1 (1=0 to 20%) | 2 (2=21 to 40%) | 1 (1=0 to 20%) | 1 (1=0 to 20%)
N#Cc1cccc(Oc2ncc(Cl)cn2)c1SCCCCC(F)(F)F [Compound A39] | 3 (3=41 to 60%) | 5 (5=81 to 100%) | 5 (5=81 to 100%) | 5 (5=81 to 100%) | 2 (2=21 to 40%) | 5 (5=81 to 100%) | 5 (5=81 to 100%) | 5 (5=81 to 100%)
N#Cc1cccc(Oc2ncc(Cl)cn2)c1SCCCCCC(F)(F)F [Compound A40] | 3 (3=41 to 60%) | 5 (5=81 to 100%) | 4 (4=61 to 80%) | 4 (4=61 to 80%) | 1 (1=0 to 20%) | 5 (5=81 to 100%) | 5 (5=81 to 100%) | 4 (4=61 to 80%)
COCCSc1ccccc1Oc1ncc(Cl)cn1 [Compound A41] | 3 (3=41 to 60%) | 3 (3=41 to 60%) | 2 (2=21 to 40%) | 3 (3=41 to 60%) | 2 (2=21 to 40%) | 1 (1=0 to 20%) | 2 (2=21 to 40%) | 2 (2=21 to 40%)
COCCS(=O)(=O)c1ccccc1Oc1ncc(Cl)cn1 [Compound A42] | 1 (1=0 to 20%) | 2 (2=21 to 40%) | 1 (1=0 to 20%) | 1 (1=0 to 20%) | 1 (1=0 to 20%) | 1 (1=0 to 20%) | 1 (1=0 to 20%) | 1 (1=0 to 20%)
CCCCCS(=O)(=O)c1ccccc1Oc1ncc(Cl)cn1 [Compound A43] | 1 (1=0 to 20%) | 3 (3=41 to 60%) | 2 (2=21 to 40%) | 2 (2=21 to 40%) | 1 (1=0 to 20%) | 5 (5=81 to 100%) | 4 (4=61 to 80%) | 4 (4=61 to 80%)
CCCCCSc1ccccc1Oc1ncc(Cl)cn1 [Compound A44] | 1 (1=0 to 20%) | 5 (5=81 to 100%) | 2 (2=21 to 40%) | 4 (4=61 to 80%) | 1 (1=0 to 20%) | 5 (5=81 to 100%) | 5 (5=81 to 100%) | 5 (5=81 to 100%)
O=S(=O)(CC(F)(F)F)c1ccccc1Oc1ncc(Cl)cn1 [Compound A78] |  |  |  |  | 1 (1=0 to 20%) | 3 (3=41 to 60%) | 1 (1=0 to 20%) | 1 (1=0 to 20%)
